In patent publication US8129355B2, “Ketone ligands for modulating the expression of exogenous genes via an ecdysone receptor complex” (priority 2002, dated 2012):
Where “and” joins values, the source holds several entries; their conditions need not be identical. Equal entries are not always repeated.

Key:
[1] = biological target: T1, GAL4 DBD (1-147)-CfEcR(DEF)/VP16AD-βRXREF-LmUSPEF (Choristoneura fumiferana, UniProt O77240); experiment: 27-63 assay: luciferase reporter gene expression in stable CHO cell clone 27-63; details: for CC50: read-out: 27-63 LC50, average, dose response; for CC50 / EC50: three-parameter logistic model; for Fold Induction Average, 27-63 Assay (33 μM): single dose 33 μM, RLU ligand treated / RLU DMSO treated cells; for EC50: 27-63 EC50 (μM), CHO clone 27-63, luciferase reporter 48 h after treatment, dose response 8 concentrations 33 μM to 0.01 μM
T1 sequence (O77240 191-513): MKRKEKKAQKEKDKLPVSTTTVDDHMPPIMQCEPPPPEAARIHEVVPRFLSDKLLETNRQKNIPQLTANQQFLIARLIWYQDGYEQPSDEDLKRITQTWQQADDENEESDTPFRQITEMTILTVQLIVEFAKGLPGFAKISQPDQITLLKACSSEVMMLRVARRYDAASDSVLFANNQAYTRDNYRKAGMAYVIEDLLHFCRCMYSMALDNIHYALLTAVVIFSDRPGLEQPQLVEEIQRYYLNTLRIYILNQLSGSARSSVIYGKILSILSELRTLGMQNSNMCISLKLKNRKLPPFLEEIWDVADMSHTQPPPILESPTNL
T1 sequence (P28702 296-455 partner limits assumed): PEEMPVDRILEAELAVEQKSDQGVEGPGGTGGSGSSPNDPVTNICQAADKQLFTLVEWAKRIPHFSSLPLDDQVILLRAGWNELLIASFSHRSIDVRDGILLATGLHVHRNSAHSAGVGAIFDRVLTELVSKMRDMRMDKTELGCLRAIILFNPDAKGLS
From the text: GAL4 DBD (1-147)-CfEcR(DEF)/VP16AD-βRXREF-LmUSPEF: The wild-type D, E, and F domains from spruce budworm Choristoneura fumiferana EcR (“CfEcR-DEF”; SEQ ID NO: 1) were fused to a GAL4 DNA binding domain (“Gal4 DBD1-147”; nucleotides 31 to 471 of SEQ ID NO: 2) and placed under the control of a phosphoglycerate kinase promoter (“PGK”; SEQ ID NO: 3). Helices 1 through 8 of the EF domains from Homo sapiens RXRβ and helices 9 through 12 of the EF domains of Locusta migratoria Ultraspiracle Protein (“HsRXRβ-EF-LmUSP-EF”; SEQ ID NO: 4) were fused to the transactivation domain from VP16 (“VP16AD”; SEQ ID NO: 5) and placed under the control of an elongation factor-1α promoter (“EF-1α”; SEQ ID NO: 6). Five consensus GAL4 response element binding sites (“5XGAL4RE”; comprising 5 copies of a GAL4RE comprising SEQ ID NO: 7) were fused to a synthetic TATA minimal promoter (SEQ ID NO: 8) and placed upstream of the luciferase reporter gene (SEQ ID NO: 9).
CHO cells were transiently transfected with transcription cassettes for GAL4 DBD (1-147) CfEcR(DEF) and for VP16AD βRXREF-LmUSPEF controlled by ubiquitously active cellular promoters (PGK and EF-1α, respectively) on a single plasmid. Stably transfected cells were selected by Zeocin resistance. Individually isolated CHO cell clones were transiently transfected with a GAL4 RE-luciferase reporter (pFR Luc). 27-63 clone was selected using Hygromycin.
(§1) Cells were trypsinized and diluted to a concentration of 2.5×10^4 cells mL. 100 μL of cell suspension was placed in each well of a 96 well plate and incubated at 37° C. under 5% CO2 for 24 h. Ligand stock solutions were prepared in DMSO and diluted 300 fold for all treatments. Dose response testing consisted of 8 concentrations ranging from 33 μM to 0.01 μM.
(§2) Luciferase reporter gene expression was measured 48 h after cell treatment using Bright-Glo™ Luciferase Assay System from Promega (E2650). Luminescence was detected at room temperature using a Dynex MLX microtiter plate luminometer.
(§3) Fold inductions were calculated from single dose testing by dividing relative light units (RLU) in ligand treated cells by RLU in DMSO treated cells. BC50s were calculated from dose response data using a three-parameter logistic model.

[2] = biological target: T2, Bombyx mori EcR (VP16 fusion, switch construct CVBE) with 6XEcRE LacZ reporter (Bombyx mori, UniProt P49881); experiment: Z3 assay: β-galactosidase (LacZ) reporter gene fold induction in stably transformed human 293 kidney cells (clone Z3); assay type: cell-based; details: for CC50: average, dose response, three-parameter logistic model, read-out: Z3 LC50; for Z3 Rel Max FI: maximum fold induction at any concentration relative to that of GS-E ligand
T2 construct: expressed in transfected cells; host or cells: Human 293 kidney (HEK-293) cells, retrovirally infected, clone Z3
T2 sequence (P49881 86-606 limits assumed): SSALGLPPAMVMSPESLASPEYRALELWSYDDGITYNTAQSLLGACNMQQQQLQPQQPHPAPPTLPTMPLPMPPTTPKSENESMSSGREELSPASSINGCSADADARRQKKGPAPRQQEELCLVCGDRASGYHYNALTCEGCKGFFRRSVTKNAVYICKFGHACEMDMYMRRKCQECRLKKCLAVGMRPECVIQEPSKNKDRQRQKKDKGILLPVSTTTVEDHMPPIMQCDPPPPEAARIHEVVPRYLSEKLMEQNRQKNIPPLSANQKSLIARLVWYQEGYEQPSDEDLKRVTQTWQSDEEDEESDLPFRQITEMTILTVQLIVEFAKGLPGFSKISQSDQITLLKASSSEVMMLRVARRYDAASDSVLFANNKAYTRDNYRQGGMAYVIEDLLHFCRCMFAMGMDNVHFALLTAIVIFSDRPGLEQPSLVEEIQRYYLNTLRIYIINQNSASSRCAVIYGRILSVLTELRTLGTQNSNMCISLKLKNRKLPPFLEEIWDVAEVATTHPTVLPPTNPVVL
T2 sequence (P19793 1-462 partner): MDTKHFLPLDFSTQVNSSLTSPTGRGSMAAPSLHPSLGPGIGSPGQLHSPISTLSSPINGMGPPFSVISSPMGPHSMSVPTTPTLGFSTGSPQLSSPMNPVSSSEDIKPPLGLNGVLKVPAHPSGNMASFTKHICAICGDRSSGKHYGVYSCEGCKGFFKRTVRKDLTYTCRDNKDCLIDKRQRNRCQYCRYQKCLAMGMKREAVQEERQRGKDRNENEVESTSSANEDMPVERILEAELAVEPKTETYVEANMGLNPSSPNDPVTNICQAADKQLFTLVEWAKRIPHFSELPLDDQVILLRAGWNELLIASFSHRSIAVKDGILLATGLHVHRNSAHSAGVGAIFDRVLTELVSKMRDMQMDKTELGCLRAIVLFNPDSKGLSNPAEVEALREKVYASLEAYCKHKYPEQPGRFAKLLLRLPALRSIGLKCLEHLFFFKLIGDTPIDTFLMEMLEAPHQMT
From the text: Dr. F. Gage provided a population of stably transformed cells containing CVBE and 6XEcRE as described in Suhr, S. T., Gil, E. B., Senut M. C., Gage, F. H. (1998) Proc. Natl. Acad. Sci. USA 95, 7999-804. Human 293 kidney cells, also referred to as HEK-293 cells, were sequentially infected with retroviral vectors encoding first the switch construct CVBE, and subsequently the reporter construct 6XEcRE Lac Z. The switch construct contained the coding sequence for amino acids 26-546 from Bombyx mori EcR (BE) (Iatrou) inserted in frame and downstream of the VP16 transactivation domain (VBE). A synthetic ATG start codon was placed under the control of cytomegalovirus (CVBE) immediate early promoter and flanked by long terminal repeats (LTR). The reporter construct contained six copies of the ecdysone response element (EcRE) binding site placed upstream of LacZ and flanked on both sides with LTR sequences (6XEcRE).
Dilution cloning was used to isolate individual clones. Clones were selected using 450 ug/mL G418 and 100 ng/mL puromycin. Individual clones were evaluated based on their response in the presence and absence of test ligands. Clone Z3 was selected for screening and SAR purposes.
Human 293 kidney cells stably transformed with CVBE and 6XEcRE lack were maintained in Minimum Essential Medium (Mediates, 10-010-CV) containing 10% FBS (Life Technologies, 26140-087), […] G418 (Mediates, 30-234-CR), and […] (Sigma, P-7255), at 37° C. in an atmosphere containing 5% CO2 and were subculture when they reached 75% confluence.
Z3 cells were seeded into 96-well tissue culture plates at a concentration of 2.5×10^3 cells per well and incubated at 37° C. in 5% CO2 for twenty-four hours. Stock solutions of ligands were prepared in DMSO. Ligand stock solutions were diluted 100 fold in media and 50 μL of this diluted ligand solution (33 μM) was added to cells. The final concentration of DMSO was maintained at […] in both controls and treatments.
Reporter gene expression was evaluated 48 hours after treatment of cells, β-galactosidase activity was measured using Gal Screen™ bioluminescent reporter gene assay system from Tropix (GSY1000).
Flanking both constructs are long terminal repeats, G418 and puromycin are selectable markers, CMV is the cytomegalovirus promoter, VBE is coding sequence for amino acids 26-546 from Bombyx mori EcR inserted downstream of the VP16 transactivation domain, 6×EcRE is six copies of the ecdysone response element, lacZ encodes for the reporter enzyme β-galactosidase. Suhr, S. T., Gil, E. B., Senut M. C., Gage, F. H. (1998) Proc. Natl. Acad. Sci. USA 95, 7999-804. Swevers, L., Drevet, J. R., Lunke, M. D., Iatrou, K. (1995) Insect Biochem. Mol. Biol. 25, 857-866.

[3] = biological target: T3, GAL4 DBD-CfEcR(DEF)/VP16AD-MmRXRE (Choristoneura fumiferana, UniProt O77240); experiment: cell-based
T3 sequence (O77240 1-513): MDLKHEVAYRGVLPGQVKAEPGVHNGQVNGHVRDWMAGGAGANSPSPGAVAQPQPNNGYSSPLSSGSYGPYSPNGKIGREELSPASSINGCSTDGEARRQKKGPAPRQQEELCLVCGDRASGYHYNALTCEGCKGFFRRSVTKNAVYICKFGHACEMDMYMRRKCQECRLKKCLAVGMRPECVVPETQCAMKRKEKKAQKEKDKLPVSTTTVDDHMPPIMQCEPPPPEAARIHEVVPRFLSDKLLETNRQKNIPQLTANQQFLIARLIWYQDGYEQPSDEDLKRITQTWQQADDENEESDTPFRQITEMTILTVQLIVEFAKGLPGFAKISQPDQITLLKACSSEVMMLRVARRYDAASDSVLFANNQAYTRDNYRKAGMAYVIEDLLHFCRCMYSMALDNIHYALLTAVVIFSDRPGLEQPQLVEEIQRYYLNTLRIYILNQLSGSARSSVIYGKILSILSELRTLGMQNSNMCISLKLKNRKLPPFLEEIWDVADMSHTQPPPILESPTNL
From the text: GAL4 DBD-CfEcR(DEF)/VP16AD-MmRXRE: The wild-type D, E, and F domains from spruce budworm Choristoneura fumiferana EcR (“CfEcR-DEF”; SEQ ID NO: 1) were fused to a GAL4 DNA binding domain (“Gal4 DBD1-147”; nucleotides 31 to 471 of SEQ ID NO: 2) and placed under the control of the SV40e promoter of pM vector (PT3119-5, Clontech, Palo Alto, Calif.). The D and E domains from Mus Musculus RXR (“MmRXR-DE”; SEQ ID NO: 10) were fused to the transactivation domain from VP16 (“VP16AD”; SEQ ID NO: 5) and placed under the control of the SV40e promoter of the pVP16 vector (PT3127-5, Clontech, Palo Alto, Calif.).
CHO cells were transienty transfected with transcription cassettes for GAL4 DBD-CfEcR(DEF) and for VP16AD-MmRXRE controlled by SV40e promoters. Stably transfected cells were selected using Hygromycin. Individually isolated CHO cell clones were transiently transfected with a GAL4 RE-luciferase reporter (pMR-Luc, Stratagene, La Jolla, Calif.). The 13B3 clone was selected using Zeocin.
as §1, §2, §3

[4] = maximum fold induction at any concentration relative to that of GS-E ligand
[5] = single dose 33 μM, ligand treated / DMSO treated cells
[6] = maximum fold induction at any concentration relative to maximum fold induction of GS™-E ligand, CHO clone 27-63

Compound: Cc1cc(C)cc(C(=O)C2(NC(=O)c3ccc4c(c3C)OCO4)CCCCC2)c1 [Example 81]
- 27-63 Rel Max FI [1, 4]: 0.91
- CC50 [1]: 3.22 µM
- CC50 [2]: 3.68 µM
- Z3 Rel Max FI [2]: 0.81

Compound: COc1cccc(C(=O)NC2(C(=O)c3cc(C)cc(C)c3)CCCN(C(=O)OC(C)(C)C)C2)c1C (racemic) [Example 146]
- Fold Induction Average, 27-63 Assay (33 μM) [1]: 1
- Fold Induction Average, Z3 Assay (33 μM) [2, 5]: 1

Compound: CCOC(=O)CN1CCC(NC(=O)c2cccc(OC)c2C)(C(=O)c2cc(C)cc(C)c2)CC1 [Example 152]
- Fold Induction Average, 27-63 Assay (33 μM) [1]: 3
- Fold Induction Average, Z3 Assay (33 μM) [2, 5]: 6

Compound: CCOC(=O)C(=O)N1CCC(NC(=O)c2cccc(OC)c2C)(C(=O)c2cc(C)cc(C)c2)CC1 [Example 150]
- Fold Induction Average, 27-63 Assay (33 μM) [1]: 1
- Fold Induction Average, Z3 Assay (33 μM) [2, 5]: 3

Compound: Cc1cc(C)cc(C(=O)C2(NS(=O)(=O)c3ccc4c(c3)COCO4)CCCCC2)c1 [Example 179]
- EC50 [1]: 6.53 µM
- 27-63 Rel Max FI [1, 6]: 0.28

Compound: COc1cccc(C(=O)NC2(C(=O)c3cc(C)cc(C)c3)CCNCC2)c1C [Example 147]
- fold induction at 33 µM ([1]; CHO, read-out: Fold Induction Average, 27-63 Assay (33 μM)): 1
- fold induction at 33 µM ([2]; single dose 33 μM, ligand treated / DMSO treated cells, read-out: Fold Induction Average, Z3 Assay (33 μM)): 1

Compound: O=C(NC1(C(=O)c2ccccc2)CCCC1)c1ccc2c(c1)OCO2 [Example 142]
- 27-63 Rel Max FI [1, 4]: 0.00
- CC50 [1]: > 33 µM
- CC50 [2]: > 33 µM
- Z3 Rel Max FI [2]: 0.00

Compound: COc1cccc(C(=O)NC2(C(=O)c3cc(C)cc(C)c3)CCN(CC#N)CC2)c1C [Example 159]
- Fold Induction Average, 27-63 Assay (33 μM) [1]: 1
- Fold Induction Average, Z3 Assay (33 μM) [2, 5]: 2

Compound: Cc1ccc(S(=O)(=O)NC2(C(=O)c3cc(C)cc(C)c3)CCCC2)cc1 [Example 180]
- EC50 [1]: 1.24 µM and 1.8 µM
- 27-63 Rel Max FI [1, 6]: 0.86 and 1.00

Compound: CC(C)(NC(=O)c1ccc2c(c1)OCO2)C(=O)c1ccccc1 [Example 106]
- Fold Induction Average, Z3 Assay (33 μM) [2, 5]: 1
- Fold Induction Average, 13B3 Assay (33 μM) [3]: 3

Compound: Cc1c(C(=O)NC2(C(=O)c3ccccc3)CCCC2)ccc2c1OCO2 [Example 23]
- Fold Induction Average, Z3 Assay (33 μM) [2, 5]: 32
- Fold Induction Average, 13B3 Assay (33 μM) [3]: 2
